In patent US7510825B2, “Kits and methods for detection of apoptotic cells” (NST NeuroSurvival Technologies Ltd, priority 2000, dated 2009):

What was measured:
[1] = system: L5178-S murine lymphoma tumors; test: Quantification of DDC uptake into lymphoma tumor after radiotherapy; format: in vivo, mice; details: DDC for 2 hours
Experimental: Extraction of DDC uptake compound from cytosolic extracts of organs or tissues for quantitative measurement of DDC uptake: • a. Excising the relevant organ from animals, that were previously injected with DDC. • b. Weighting the organs and homogenize using tissue homogenizer in a cold Buffer-Hepes • c. Following total homogenization, centrifuging the sample at 13,800 rpm for 20 min at 4° C. and transferring the supernatant to a new test tube. • d. Repeating step c and taking the supernatant for quantitative fluorescence evaluation. Alternatively, the supernatant can be stored at −80° C. until use. • e. Placing a sample of 100 ul of organ suspension into each of three wells of a black to microtiter plate. • f. Measuring the fluorescence intensity of DDC (excitation 360 nm, emission 535 nm) using a fluorescence plate reader.
Creating a calibration curve for the fluorescence plate reader using serial dilution of the DDC compound: 1:10, 1:20, 1:40, 1:80, 1:160, 1:320, 1:640, 1:1280.
Murine lymphoma model was established using DBA/2 mice injected subcutaneously with L5178-S murine lymphoma cells. Tumor treatment, by multiply fractionated X-irradiation (3 fractions of 6 Gy/day), started when the tumor reached in diameter 6-8 mm (approximately ten days after tumor implantation). At different time points (24, 48 or 72 hours) following irradiation, mice were injected with DDC for 2 hours. Tumors were harvested from control and radiation-treated animals and processed for quantitative analysis of DDC uptake into the tumor.

[2] = system: epithelial cells of the small intestine; test: Detection by DDC of apoptosis in small intestine epithelial cells following chemotherapy; format: in vivo, mice; details: 48 hr following Cyclophosphamide and Taxol chemotherapy
Experimental: A. Administration of DDC in-vivo: Injection of 200 μl of DDC intravenously. Following 1-2 hours, animal is sacrificed, and the desired organ is placed in a test tube or on a small plate, suitable for liquid nitrogen freezing. The plate is then covered with an aluminum foil, and transferred to liquid nitrogen. Following 5-30 minutes the specimen is being frozen to −80° C. and kept at −80° C. for at least 16 hr. B. Analysis of the Specimen: • a. Whole organ imaging Ex-vivo whole organ fluorescence imaging may be carried out on freshly excised specimen, that can be analyzed under a stereomicroscope (such as Leica MZ FL III, Leica Switzerland). […] Emitted fluorescence can be imaged using appropriate camera and software, such as a Leica DC 300F Distal camera and images can be processed and analyzed by Leica QWin Lite software. • b. […] Analysis of the tissue sections can be performed using a fluorescence microscope with a UV filter characterized by excitation at 360-370 nm (band pass) and emission at 420 nm (barrier filter) In case that staining of the examined tissue is desired, the following procedures can be applied:
Chemotherapy treatment is not selective to tumor cells, but can also affect other organs/tissue within the body as a side effect. […] Such side effects may be detected by DDC in the small intestine, in which the epithelial cells are affected by the chemotherapy. […]

[3] = system: Jurkat cells (T-cell leukemia, human); test: Binding of DDC and PI to Jurkat cells treated with anti-Fas antibody, FACS; format: cell-based; details: anti-Fas antibody 0.1 μg/ml for 180 minutes
Experimental: a. Non Adherent Cells • 1. Inducing cells to undergo apoptosis. A negative control should be prepared by incubating cells in the absence of apoptosis induction agent. • 2. Washing the cells and adjusting the number of cells to 1×10^7/ml in PBS. • 3. Transferring 30 μl from the cell suspension to a suitable test tube for FACS analysis. • 4. Adding 260 μl of PBS and 5 μl of DDC to the tube and incubating for 15 minutes at room temperature (RT), protected from light. • 5. Adding 5 μl of Propidium Iodide (PI) and perform FACS analysis.
Analyzing DDC accumulation by flow cytometry using FACS apparatus that includes a UV laser. For DDC analysis: the UV detector excitation is at 356 nm and the emission is at 530 nm with a band pass of […]. […] The population should be separated into three groups: live cells will show a low level of fluorescence (background), apoptotic cells will show higher UV fluorescence and necrotic cells will show both red and higher UV fluorescence.
Jurkat cells (T-cell leukemia, human) were treated with anti-Fas antibody (0.1 μg/ml) for 180 minutes, Following incubation the cells were washed and stained with DDC (as detailed in DDC protocols, IIIA). […] Following incubation with anti-Fas antibody, most of the cells shifted to the lower right section (AII, EA) of higher fluorescence value, indicating increased staining with DDC. […]

red blood cells (RBC) = test: Selective binding of DDC to activated red blood cells, flow cytometry; format: cell-based; details: DDC 500 μM
Experimental: Activation of intact RBC, was induced by a combined treatment with N-ethylmaleimide (NEM) and calcium ionophore, in the presence of Ca 2+.
Fresh RBC were obtained, diluted to 0.1 of their initial volume with buffer A (143 mM NaCl; 2 mM KCl; 0.1% Glucose; 10 mM NaH2PO4; pH=7.4), and washed 4 times in the above buffer. Cells were then re-suspended in buffer B (55 mM NaCl; 90 mM KCl, 0.1% glucose, 10 mM HEPES; pH=7.4). These cells were thereafter used as control cells. For activation, the cells were treated for 15-60 min at 37° C. with a combination of 2 mM CaCl, 5 μM of the Calcium ionophore A23187 and 5 mm of NEM. Cells were then washed twice with buffer B containing 0.1% of bovine serum albumin, and finally re-suspended in Buffer B containing 2 mM CaCl2 For examination of binding of DDC to the cells, DDC was dissolved in 0.1M NaPPi, pH=7.4, at a stock concentration of 1 mM. Binding assays were performed at a final concentration of 500 μM, and level of binding was evaluated by flow cytometry.

SMILES: CN(C)c1cccc2c(S(=O)(=O)NC(CSSCC(NS(=O)(=O)c3cccc4c(N(C)C)cccc34)C(=O)O)C(=O)O)cccc12 (stereo not shown) [DDC]
- DDC uptake into the tumor, times higher over the control mean values ([1]; 24 hours following X-irradiation (3 fractions of 6 Gy/day)): 3.68 times
- DDC uptake into the tumor, times higher over the control mean values ([1]; 48 hours following X-irradiation (3 fractions of 6 Gy/day)): 4.69 times
- DDC uptake into the tumor, times higher over the control mean values ([1]; 72 hours following X-irradiation (3 fractions of 6 Gy/day)): 6.74 times
- uptake of DDC into single epithelial cells [2]: increased uptake
- fluorescence (DDC accumulation) of treated versus control cells [3]: marked shift of fluorescence
- staining of red blood cells with DDC (red blood cells (RBC); RBC activated by NEM, calcium ionophore A23187 and Ca2+): substantial shift to higher fluorescence levels
- staining of red blood cells with DDC (red blood cells (RBC); intact RBC): did not stain significantly
